From ChEMBL document CHEMBL3112491, “3-(5-)-Amino-o-diarylisoxazoles: regioselective synthesis and antitubulin activity” (2014)

Tests used:
Type in all cases: functional
[1] = Growth inhibition of human Hs 578T cells after 48 hrs by sulforhodamine B assay
SF-295 = assay: Growth inhibition of human SF295 cells after 48 hrs by sulforhodamine B assay; conditions: SF-295, 48 h
A498 = assay: Growth inhibition of human A498 cells after 48 hrs by sulforhodamine B assay; conditions: A498, 48 h
CAKI-1 = assay: Growth inhibition of human CAKI-1 cells after 48 hrs by sulforhodamine B assay; conditions: CAKI-1, 48 h
HOP-62 = assay: Growth inhibition of human HOP62 cells after 48 hrs by sulforhodamine B assay; conditions: HOP-62, 48 h
CCRF-CEM = assay: Growth inhibition of human CCRF-CEM cells after 48 hrs by sulforhodamine B assay
SR = assay: Growth inhibition of human SR cells after 48 hrs by sulforhodamine B assay
[2] = Growth inhibition of human HCC2998 cells after 48 hrs by sulforhodamine B assay; conditions: HCC 2998, 48 h
HCT-15 = assay: Growth inhibition of human HCT15 cells after 48 hrs by sulforhodamine B assay; conditions: HCT-15, 48 h
NCI-H322M = assay: Growth inhibition of human NCI-H322M cells after 48 hrs by sulforhodamine B assay
[3] = Growth inhibition of human RXF393 cells after 48 hrs by sulforhodamine B assay; conditions: RXF 393, 48 h
T47D = assay: Growth inhibition of human T47D cells after 48 hrs by sulforhodamine B assay
HL-60(TB) = assay: Growth inhibition of human HL-60(TB) cells after 48 hrs by sulforhodamine B assay; conditions: HL-60, 48 h
[4] = Growth inhibition of human HOP92 cells after 48 hrs by sulforhodamine B assay; conditions: HOP-92, 48 h
NCI-H522 = assay: Growth inhibition of human NCI-H522 cells after 48 hrs by sulforhodamine B assay; conditions: NCI-H522, 48 h
Paracentrotus lividus [5] = assay: Microtubule destabilizing activity in sea urchin free-swimming blastula assessed as embryo spinning treated at 9 to 10 hrs post-fertilization measured after 0.15 to 15 hrs
MCF7 = assay: Growth inhibition of human MCF7 cells after 48 hrs by sulforhodamine B assay; conditions: MCF7, 48 h
A549 = assay: Growth inhibition of human A549/ATCC cells after 48 hrs by sulforhodamine B assay; conditions: A549, 48 h
SN12C = assay: Growth inhibition of human SN12C cells after 48 hrs by sulforhodamine B assay
M14 = assay: Growth inhibition of human M14 cells after 48 hrs by sulforhodamine B assay; conditions: M14, 48 h
MDA-MB-468 = assay: Growth inhibition of human MDA-MB-468 cells after 48 hrs by sulforhodamine B assay; conditions: MDA-MB-468, 48 h
[6] = Growth inhibition of human OVCAR4 cells after 48 hrs by sulforhodamine B assay; conditions: OVCAR-4, 48 h
BT-549 = assay: Growth inhibition of human BT549 cells after 48 hrs by sulforhodamine B assay; conditions: BT-549, 48 h
786-0 = assay: Growth inhibition of human 786-0 cells after 48 hrs by sulforhodamine B assay; conditions: 786-0, 48 h
RPMI-8226 = assay: Growth inhibition of human RPMI8226 cells after 48 hrs by sulforhodamine B assay; conditions: RPMI-8226, 48 h
OVCAR-3 = assay: Growth inhibition of human OVCAR3 cells after 48 hrs by sulforhodamine B assay; conditions: OVCAR-3, 48 h
[7] = Growth inhibition of human NCI-ADR-RES cells after 48 hrs by sulforhodamine B assay
[8] = Growth inhibition of human SF539 cells after 48 hrs by sulforhodamine B assay; conditions: SF-539, 48 h
ACHN = assay: Growth inhibition of human ACHN cells after 48 hrs by sulforhodamine B assay
SW-620 = assay: Growth inhibition of human SW620 cells after 48 hrs by sulforhodamine B assay; conditions: SW-620, 48 h
SK-MEL-28 = assay: Growth inhibition of human SK-MEL-28 cells after 48 hrs by sulforhodamine B assay; conditions: SK-MEL-28, 48 h
Paracentrotus lividus [9] = assay: Antimitotic activity in sea urchin fertilized egg assessed as cleavage arrest treated at 8 to 20 mins post-fertilization measured at 2.5 to 5.5 hrs post-fertilization
NCI-H23 = assay: Growth inhibition of human NCI-H23 cells after 48 hrs by sulforhodamine B assay; conditions: NCI-H23, 48 h
LOX IMVI = assay: Growth inhibition of human LOXIMVI cells after 48 hrs by sulforhodamine B assay
SNB-19 = assay: Growth inhibition of human SNB19 cells after 48 hrs by sulforhodamine B assay; conditions: SNB-19, 48 h
MOLT-4 = assay: Growth inhibition of human MOLT4 cells after 48 hrs by sulforhodamine B assay; conditions: MOLT-4, 48 h
NCI-H226 = assay: Growth inhibition of human NCI-H226 cells after 48 hrs by sulforhodamine B assay; conditions: NCI-H226, 48 h
SK-MEL-5 = assay: Growth inhibition of human SK-MEL-5 cells after 48 hrs by sulforhodamine B assay; conditions: SK-MEL-5, 48 h
COLO 205 = assay: Growth inhibition of human COLO205 cells after 48 hrs by sulforhodamine B assay; conditions: COLO 205, 48 h
KM12 = assay: Growth inhibition of human KM12 cells after 48 hrs by sulforhodamine B assay; conditions: KM12, 48 h
Malme-3M = assay: Growth inhibition of human MALME-3M cells after 48 hrs by sulforhodamine B assay
SK-MEL-2 = assay: Growth inhibition of human SK-MEL-2 cells after 48 hrs by sulforhodamine B assay; conditions: SK-MEL-2, 48 h
SF-268 = assay: Growth inhibition of human SF268 cells after 48 hrs by sulforhodamine B assay; conditions: SF-268, 48 h
HCT-116 = assay: Growth inhibition of human HCT116 cells after 48 hrs by sulforhodamine B assay; conditions: HCT-116, 48 h
[10] = Growth inhibition of human EKVX cells after 48 hrs by sulforhodamine B assay
MDA-MB-435 = assay: Growth inhibition of human MDA-MB-435 cells after 48 hrs by sulforhodamine B assay; conditions: MDA-MB-435, 48 h
U-251 = assay: Growth inhibition of human U251 cells after 48 hrs by sulforhodamine B assay; conditions: U-251, 48 h
Paracentrotus lividus [11] = assay: Antimitotic activity in sea urchin fertilized egg assessed as cleavage alteration treated at 8 to 20 mins post-fertilization measured at 2.5 to 5.5 hrs post-fertilization
UACC-62 = assay: Growth inhibition of human UACC62 cells after 48 hrs by sulforhodamine B assay; conditions: UACC-62, 48 h
IGROV-1 = assay: Growth inhibition of human IGROV1 cells after 48 hrs by sulforhodamine B assay; conditions: IGROV-1, 48 h
SK-OV-3 = assay: Growth inhibition of human SKOV3 cells after 48 hrs by sulforhodamine B assay; conditions: SK-OV-3, 48 h
MDA-MB-231 = assay: Growth inhibition of human MDA-MB-231 cells after 48 hrs by sulforhodamine B assay; conditions: MDA-MB-231, 48 h
DU-145 = assay: Growth inhibition of human DU145 cells after 48 hrs by sulforhodamine B assay; conditions: DU-145, 48 h
NCI-H460 = assay: Growth inhibition of human NCI-H460 cells after 48 hrs by sulforhodamine B assay; conditions: NCI-H460, 48 h
[12] = Growth inhibition of human UO31 cells after 48 hrs by sulforhodamine B assay; conditions: UO-31, 48 h
TK-10 = assay: Growth inhibition of human TK10 cells after 48 hrs by sulforhodamine B assay; conditions: TK-10, 48 h
OVCAR-8 = assay: Growth inhibition of human OVCAR8 cells after 48 hrs by sulforhodamine B assay; conditions: OVCAR-8, 48 h
PC-3 = assay: Growth inhibition of human PC3 cells after 48 hrs by sulforhodamine B assay; conditions: PC-3, 48 h
HT-29 = assay: Growth inhibition of human HT-29 cells after 48 hrs by sulforhodamine B assay; conditions: HT-29, 48 h
[13] = Growth inhibition of human OVCAR5 cells after 48 hrs by sulforhodamine B assay; conditions: OVCAR-5, 48 h
[14] = Growth inhibition of human UACC257 cells after 48 hrs by sulforhodamine B assay; conditions: UACC-257, 48 h
SNB-75 = assay: Growth inhibition of human SNB75 cells after 48 hrs by sulforhodamine B assay; conditions: SNB-75, 48 h

## COc1ccc(-c2c(-c3cc(OC)c4c(c3)OCCO4)noc2N)cc1
[1]
  GI50: < 10 nM
SF-295
  GI50: < 10 nM
A498
  GI50: < 10 nM
CAKI-1
  GI50: < 10 nM
HOP-62
  GI50: < 10 nM
CCRF-CEM
  GI50: 15.5 nM
SR
  GI50: < 10 nM
[2]
  GI50: 20.1 nM
HCT-15
  GI50: < 10 nM
NCI-H322M
  GI50: 25400 nM
[3]
  GI50: < 10 nM
T47D
  GI50: 27.2 nM
HL-60(TB)
  GI50: 10.4 nM
[4]
  GI50: 446 nM
NCI-H522
  GI50: < 10 nM
Paracentrotus lividus [5]
  EC: 0.1 µM
MCF7
  GI50: < 10 nM
A549
  GI50: 10.1 nM
SN12C
  GI50: 31.8 nM
M14
  GI50: < 10 nM
MDA-MB-468
  GI50: 12.2 nM
[6]
  GI50: 78.7 nM
BT-549
  GI50: 28.5 nM
786-0
  GI50: 14.5 nM
RPMI-8226
  GI50: 33.8 nM
OVCAR-3
  GI50: < 10 nM
[7]
  GI50: < 10 nM
[8]
  GI50: 13 nM
ACHN
  GI50: 12.2 nM
SW-620
  GI50: < 10 nM
SK-MEL-28
  GI50: 17 nM
Paracentrotus lividus [9]
  EC: 0.01 µM
NCI-H23
  GI50: 1.95 nM
LOX IMVI
  GI50: 11.2 nM
SNB-19
  GI50: 26.9 nM
MOLT-4
  GI50: 39.8 nM
NCI-H226
  GI50: 27.7 nM
SK-MEL-5
  GI50: < 10 nM
COLO 205
  GI50: < 10 nM
KM12
  GI50: < 10 nM
Malme-3M
  GI50: 23600 nM
SK-MEL-2
  GI50: < 10 nM
SF-268
  GI50: 30 nM
HCT-116
  GI50: < 10 nM
[10]
  GI50: 35.3 nM
MDA-MB-435
  GI50: < 10 nM
U-251
  GI50: 14.8 nM
Paracentrotus lividus [11]
  EC: 0.002 µM
UACC-62
  GI50: < 10 nM
IGROV-1
  GI50: 13.6 nM
SK-OV-3
  GI50: < 10 nM
MDA-MB-231
  GI50: 73.4 nM
DU-145
  GI50: 32 nM
NCI-H460
  GI50: < 10 nM
[12]
  GI50: 57.8 nM
TK-10
  GI50: 15.8 nM
OVCAR-8
  GI50: 21.5 nM
PC-3
  GI50: 24.8 nM
HT-29
  GI50: < 10 nM
[13]
  GI50: 50.5 nM

## COc1ccc(-c2c(-c3cc(OC)c(OC)c(OC)c3)noc2N)cc1
[1]
  GI50: < 10 nM
SF-295
  GI50: < 10 nM
A498
  GI50: < 10 nM
HOP-62
  GI50: 14.4 nM
SR
  GI50: < 10 nM
[2]
  GI50: 15.1 nM
HCT-15
  GI50: < 10 nM
NCI-H322M
  GI50: 56.7 nM
HL-60(TB)
  GI50: < 10 nM
[4]
  GI50: < 10 nM
NCI-H522
  GI50: < 10 nM
Paracentrotus lividus [5]
  EC: 0.5 µM
MCF7
  GI50: < 10 nM
A549
  GI50: < 10 nM
SN12C
  GI50: 32.8 nM
M14
  GI50: < 10 nM
[14]
  GI50: < 10 nM
MDA-MB-468
  GI50: < 10 nM
[6]
  GI50: 14.5 nM
BT-549
  GI50: 19.3 nM
786-0
  GI50: < 10 nM
OVCAR-3
  GI50: < 10 nM
[7]
  GI50: < 10 nM
[8]
  GI50: < 10 nM
ACHN
  GI50: < 10 nM
SW-620
  GI50: < 10 nM
Paracentrotus lividus [9]
  EC: 0.005 µM
NCI-H23
  GI50: 14.9 nM
SNB-75
  GI50: < 10 nM
LOX IMVI
  GI50: < 10 nM
SNB-19
  GI50: 25.1 nM
MOLT-4
  GI50: 27.4 nM
NCI-H226
  GI50: 24.4 nM
SK-MEL-5
  GI50: < 10 nM
COLO 205
  GI50: < 10 nM
KM12
  GI50: < 10 nM
Malme-3M
  GI50: 13400 nM
SK-MEL-2
  GI50: 18.8 nM
SF-268
  GI50: < 10 nM
HCT-116
  GI50: < 10 nM
[10]
  GI50: 15200 nM
MDA-MB-435
  GI50: < 10 nM
U-251
  GI50: < 10 nM
Paracentrotus lividus [11]
  EC: 0.002 µM
UACC-62
  GI50: < 10 nM
IGROV-1
  GI50: 10.6 nM
SK-OV-3
  GI50: < 10 nM
MDA-MB-231
  GI50: 31.9 nM
DU-145
  GI50: 13.5 nM
NCI-H460
  GI50: < 10 nM
[12]
  GI50: < 10 nM
TK-10
  GI50: 10500 nM
OVCAR-8
  GI50: 13.9 nM
PC-3
  GI50: < 10 nM
HT-29
  GI50: < 10 nM
[13]
  GI50: 46.6 nM
